Laboratory results taken from ChEMBL document CHEMBL1141668, “Synthesis and biological activity of imidazopyridine anticoccidial agents: Part II” (Eur J Med Chem, 2008).

Columns and labels:
Eimeria maxima [1] = experiment: Anticoccidial activity against Eimeria maxima in chickens assessed as reduction of oocysts at 8 ppm measured after 8 days by ExMAC assay relative to untreated control; assay type: functional; parameters: scale not given: the % may be the effect or the level left
Eimeria maxima [2] = experiment: Anticoccidial activity against Eimeria maxima in chickens assessed as reduction of oocysts at 6 ppm measured after 8 days by ExMAC assay relative to untreated control; assay type: functional; parameters: scale not given: the % may be the effect or the level left
Eimeria maxima [3] = experiment: Anticoccidial activity against Eimeria maxima in chickens assessed as reduction of oocysts at 10 ppm measured after 8 days by ExMAC assay relative to untreated control; assay type: functional; parameters: scale not given: the % may be the effect or the level left
[4] = molecular target: cGMP-dependent protein kinase (Eimeria tenella, UniProt Q8MMZ8); experiment: Inhibition of Eimeria tenella cGMP-dependent protein kinase
Eimeria tenella [5] = experiment: Anticoccidial activity against Eimeria tenella in chickens assessed as reduction of oocysts at 25 ppm measured after 8 days by ExMAC assay relative to untreated control; assay type: functional; parameters: scale not given: the % may be the effect or the level left
Eimeria tenella [6] = experiment: Anticoccidial activity against Eimeria tenella in chickens assessed as reduction of oocysts at 12.5 ppm measured after 8 days by ExMAC assay relative to untreated control; assay type: functional; parameters: scale not given: the % may be the effect or the level left
Eimeria tenella [7] = experiment: Anticoccidial activity against Eimeria tenella in chickens assessed as reduction of oocysts at 8 ppm measured after 8 days by ExMAC assay relative to untreated control; assay type: functional; parameters: scale not given: the % may be the effect or the level left
Eimeria tenella [8] = experiment: Anticoccidial activity against Eimeria tenella in chickens assessed as reduction of oocysts at 6 ppm measured after 8 days by ExMAC assay relative to untreated control; assay type: functional; parameters: scale not given: the % may be the effect or the level left
Eimeria tenella [9] = experiment: Anticoccidial activity against Eimeria tenella in chickens assessed as reduction of oocysts at 10 ppm measured after 8 days by ExMAC assay relative to untreated control; assay type: functional; parameters: scale not given: the % may be the effect or the level left
Eimeria acervulina [10] = experiment: Anticoccidial activity against Eimeria acervulina in chickens assessed as reduction of oocysts at 25 ppm measured after 8 days by ExMAC assay relative to untreated control; assay type: functional; parameters: scale not given: the % may be the effect or the level left
Eimeria acervulina [11] = experiment: Anticoccidial activity against Eimeria acervulina in chickens assessed as reduction of oocysts at 12.5 ppm measured after 8 days by ExMAC assay relative to untreated control; assay type: functional; parameters: scale not given: the % may be the effect or the level left
Eimeria acervulina [12] = experiment: Anticoccidial activity against Eimeria acervulina in chickens assessed as reduction of oocysts at 8 ppm measured after 8 days by ExMAC assay relative to untreated control; assay type: functional; parameters: scale not given: the % may be the effect or the level left
Eimeria acervulina [13] = experiment: Anticoccidial activity against Eimeria acervulina in chickens assessed as reduction of oocysts at 6 ppm measured after 8 days by ExMAC assay relative to untreated control; assay type: functional; parameters: scale not given: the % may be the effect or the level left
Eimeria acervulina [14] = experiment: Anticoccidial activity against Eimeria acervulina in chickens assessed as reduction of oocysts at 10 ppm measured after 8 days by ExMAC assay relative to untreated control; assay type: functional; parameters: scale not given: the % may be the effect or the level left
Eimeria mitis [15] = experiment: Anticoccidial activity against Eimeria mitis in chickens assessed as reduction of oocysts at 25 ppm measured after 8 days by ExMAC assay relative to untreated control; assay type: functional; parameters: scale not given: the % may be the effect or the level left
Eimeria mitis [16] = experiment: Anticoccidial activity against Eimeria mitis in chickens assessed as reduction of oocysts at 12.5 ppm measured after 8 days by ExMAC assay relative to untreated control; assay type: functional; parameters: scale not given: the % may be the effect or the level left
Eimeria mitis [17] = experiment: Anticoccidial activity against Eimeria mitis in chickens assessed as reduction of oocysts at 8 ppm measured after 8 days by ExMAC assay relative to untreated control; assay type: functional; parameters: scale not given: the % may be the effect or the level left
Eimeria mitis [18] = experiment: Anticoccidial activity against Eimeria mitis in chickens assessed as reduction of oocysts at 6 ppm measured after 8 days by ExMAC assay relative to untreated control; assay type: functional; parameters: scale not given: the % may be the effect or the level left
Eimeria mitis [19] = experiment: Anticoccidial activity against Eimeria mitis in chickens assessed as reduction of oocysts at 10 ppm measured after 8 days by ExMAC assay relative to untreated control; assay type: functional; parameters: scale not given: the % may be the effect or the level left
Eimeria maxima [20] = experiment: Anticoccidial activity against Eimeria maxima in chickens assessed as reduction of oocysts at 25 ppm measured after 8 days by ExMAC assay relative to untreated control; assay type: functional; parameters: scale not given: the % may be the effect or the level left
Eimeria maxima [21] = experiment: Anticoccidial activity against Eimeria maxima in chickens assessed as reduction of oocysts at 12.5 ppm measured after 8 days by ExMAC assay relative to untreated control; assay type: functional; parameters: scale not given: the % may be the effect or the level left
Eimeria tenella [22] = experiment: Anticoccidial activity against Eimeria tenella in chickens assessed as reduction of oocysts at 50 ppm measured after 8 days by ExMAC assay relative to untreated control; assay type: functional; parameters: scale not given: the % may be the effect or the level left
Eimeria acervulina [23] = experiment: Anticoccidial activity against Eimeria acervulina in chickens assessed as reduction of oocysts at 50 ppm measured after 8 days by ExMAC assay relative to untreated control; assay type: functional; parameters: scale not given: the % may be the effect or the level left
Eimeria mitis [24] = experiment: Anticoccidial activity against Eimeria mitis in chickens assessed as reduction of oocysts at 50 ppm measured after 8 days by ExMAC assay relative to untreated control; assay type: functional; parameters: scale not given: the % may be the effect or the level left
Eimeria maxima [25] = experiment: Anticoccidial activity against Eimeria maxima in chickens assessed as reduction of oocysts at 50 ppm measured after 8 days by ExMAC assay relative to untreated control; assay type: functional; parameters: scale not given: the % may be the effect or the level left
Eimeria maxima [26] = experiment: Anticoccidial activity against Eimeria maxima in chickens assessed as reduction of oocysts at 1 ppm measured after 8 days by ExMAC assay relative to untreated control; assay type: functional; parameters: scale not given: the % may be the effect or the level left
Eimeria tenella [27] = experiment: Anticoccidial activity against Eimeria tenella in chickens assessed as reduction of oocysts at 4 ppm measured after 8 days by ExMAC assay relative to untreated control; assay type: functional; parameters: scale not given: the % may be the effect or the level left
Eimeria tenella [28] = experiment: Anticoccidial activity against Eimeria tenella in chickens assessed as reduction of oocysts at 2 ppm measured after 8 days by ExMAC assay relative to untreated control; assay type: functional; parameters: scale not given: the % may be the effect or the level left
Eimeria tenella [29] = experiment: Anticoccidial activity against Eimeria tenella in chickens assessed as reduction of oocysts at 1 ppm measured after 8 days by ExMAC assay relative to untreated control; assay type: functional; parameters: scale not given: the % may be the effect or the level left
Eimeria acervulina [30] = experiment: Anticoccidial activity against Eimeria acervulina in chickens assessed as reduction of oocysts at 4 ppm measured after 8 days by ExMAC assay relative to untreated control; assay type: functional; parameters: scale not given: the % may be the effect or the level left
Eimeria acervulina [31] = experiment: Anticoccidial activity against Eimeria acervulina in chickens assessed as reduction of oocysts at 2 ppm measured after 8 days by ExMAC assay relative to untreated control; assay type: functional; parameters: scale not given: the % may be the effect or the level left
Eimeria acervulina [32] = experiment: Anticoccidial activity against Eimeria acervulina in chickens assessed as reduction of oocysts at 1 ppm measured after 8 days by ExMAC assay relative to untreated control; assay type: functional; parameters: scale not given: the % may be the effect or the level left
Eimeria mitis [33] = experiment: Anticoccidial activity against Eimeria mitis in chickens assessed as reduction of oocysts at 4 ppm measured after 8 days by ExMAC assay relative to untreated control; assay type: functional; parameters: scale not given: the % may be the effect or the level left
Eimeria mitis [34] = experiment: Anticoccidial activity against Eimeria mitis in chickens assessed as reduction of oocysts at 2 ppm measured after 8 days by ExMAC assay relative to untreated control; assay type: functional; parameters: scale not given: the % may be the effect or the level left
Eimeria mitis [35] = experiment: Anticoccidial activity against Eimeria mitis in chickens assessed as reduction of oocysts at 1 ppm measured after 8 days by ExMAC assay relative to untreated control; assay type: functional; parameters: scale not given: the % may be the effect or the level left
Eimeria maxima [36] = experiment: Anticoccidial activity against Eimeria maxima in chickens assessed as reduction of oocysts at 4 ppm measured after 8 days by ExMAC assay relative to untreated control; assay type: functional; parameters: scale not given: the % may be the effect or the level left
Eimeria maxima [37] = experiment: Anticoccidial activity against Eimeria maxima in chickens assessed as reduction of oocysts at 2 ppm measured after 8 days by ExMAC assay relative to untreated control; assay type: functional; parameters: scale not given: the % may be the effect or the level left

cGMP-dependent protein kinase, sequence (Q8MMZ8 whole entry): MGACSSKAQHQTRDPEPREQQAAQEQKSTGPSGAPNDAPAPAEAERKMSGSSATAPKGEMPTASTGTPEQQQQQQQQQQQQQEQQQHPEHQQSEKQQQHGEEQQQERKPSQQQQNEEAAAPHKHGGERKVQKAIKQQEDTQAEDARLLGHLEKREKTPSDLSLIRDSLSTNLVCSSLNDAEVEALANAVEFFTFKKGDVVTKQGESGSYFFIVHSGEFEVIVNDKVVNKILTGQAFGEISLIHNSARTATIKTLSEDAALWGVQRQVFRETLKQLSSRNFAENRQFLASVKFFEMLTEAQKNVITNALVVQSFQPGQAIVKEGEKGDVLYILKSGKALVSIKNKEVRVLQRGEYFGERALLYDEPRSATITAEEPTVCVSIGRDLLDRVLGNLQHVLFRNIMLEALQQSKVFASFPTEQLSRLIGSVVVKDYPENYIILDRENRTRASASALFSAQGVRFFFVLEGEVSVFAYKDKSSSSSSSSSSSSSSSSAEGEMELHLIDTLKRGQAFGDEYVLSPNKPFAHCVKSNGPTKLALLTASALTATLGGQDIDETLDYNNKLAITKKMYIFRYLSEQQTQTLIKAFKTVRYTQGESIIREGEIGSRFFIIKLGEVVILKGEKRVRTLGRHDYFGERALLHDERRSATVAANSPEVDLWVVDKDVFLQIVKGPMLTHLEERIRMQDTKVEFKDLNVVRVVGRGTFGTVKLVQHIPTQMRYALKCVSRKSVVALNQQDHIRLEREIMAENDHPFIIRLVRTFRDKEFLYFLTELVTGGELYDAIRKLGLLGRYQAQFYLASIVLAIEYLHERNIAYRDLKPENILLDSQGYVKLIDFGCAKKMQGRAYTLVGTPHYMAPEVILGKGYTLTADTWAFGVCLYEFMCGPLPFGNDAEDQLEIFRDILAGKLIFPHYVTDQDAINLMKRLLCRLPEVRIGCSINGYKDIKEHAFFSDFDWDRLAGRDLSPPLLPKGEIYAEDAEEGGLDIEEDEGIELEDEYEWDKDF

CCN1CCC(c2ccn3c(-c4ccnc(N)n4)c(-c4ccc(F)cc4)nc3c2)CC1
0.11 nM: IC50 [4]
<50%: Activity (Eimeria maxima [2]) | Activity (Eimeria acervulina [13])
100%: Activity (Eimeria maxima [1]) | Activity (Eimeria maxima [3]) | Activity (Eimeria tenella [5]) | Activity (Eimeria tenella [6]) | Activity (Eimeria tenella [7]) | Activity (Eimeria tenella [8]) | Activity (Eimeria tenella [9]) | Activity (Eimeria acervulina [10]) | Activity (Eimeria mitis [15]) | Activity (Eimeria mitis [16]) | Activity (Eimeria maxima [20]) | Activity (Eimeria maxima [21])
80%: Activity (Eimeria acervulina [11]) | Activity (Eimeria acervulina [12]) | Activity (Eimeria acervulina [14]) | Activity (Eimeria mitis [17]) | Activity (Eimeria mitis [18]) | Activity (Eimeria mitis [19])

NC(=O)c1ccn2c(-c3ccnc(N)n3)c(-c3ccc(F)cc3)nc2c1
<50%: Activity (Eimeria acervulina [23]) | Activity (Eimeria mitis [24])
80%: Activity (Eimeria tenella [22])
50%: Activity (Eimeria maxima [25])
1.8 nM: IC50 [4]

CC(c1ccn2c(-c3ccnc(N)n3)c(-c3ccc(F)cc3)nc2c1)N(C)C (single isomer, unassigned; enantiomer B)
80%: Activity (Eimeria tenella [27]) | Activity (Eimeria tenella [28]) | Activity (Eimeria acervulina [30]) | Activity (Eimeria acervulina [32]) | Activity (Eimeria mitis [33]) | Activity (Eimeria mitis [34]) | Activity (Eimeria maxima [37])
0.067 nM: IC50 [4]
50%: Activity (Eimeria tenella [29])
<50%: Activity (Eimeria mitis [35])
100%: Activity (Eimeria maxima [26]) | Activity (Eimeria acervulina [31]) | Activity (Eimeria maxima [36])
